Results: patent US5874405A, “Heat shock protein peptides that share sequences with cyclic nucleotide phosphodiesterase and methods for modulating autoimmune central nervous system disease” (priority 1994, dated 1999)
Where no end group is shown, it is not given here.

System: antibodies in cerebrospinal fluid (CSF) and sera
Assay: Dot-blot analysis of CSF and sera for antibodies to CNP 173-184 peptide
Format: binding, human
Details: for patients whose CSF had antibodies to the peptide: data not shown
Method: Cerebrospinal fluid (CSF) and sera from MS patients and controls were analyzed for antibodies to the peptide derived from CNP isoform 2 (corresponding to amino acids 173-184) using dot-blot analyses. Samples from nine MS patients and five patients with other neurologic diseases (OND) were analyzed. The CNP 173-184 peptide coupled to BSA was adsorbed onto nitrocellulose membranes. Control wells received BSA alone. Two dilutions of paired spinal fluids and sera were added to the wells and the amount of antibody binding determined using peroxidase labeled anti-human IgG and an enhanced chemiluminescent assay (ECL Western Blotting Kit; Amersham International, Plc., Buckinghamshire, England). Using the public domain program, Image 1.40 (available from NIH), the integrated densities of the dots in the CNP 173-184 peptide wells and BSA wells were determined.

LKKLKPGLEKDF [CNP 173-184 peptide]
patients whose CSF had antibodies to the peptide (MS patients): 5/9 | patients whose CSF had antibodies to the peptide (OND patients): 0/5 | densities in peptide wells relative to BSA wells (MS CSF): approximately twofold | number of patients with antibodies in sera (MS patients): 3 | number of patients with antibodies in sera (OND patients): 1
